What was measured:
[1] = system: RSV respiratory tract virus (A long strain); test: RSV long CPE assay (cytopathic effect assay), EC50; assay type: cell-based; settings: human respiratory syncytial virus, HEp-2, 120 h; Hep2 cells infected with RSV A long strain, 5 days, CCK-8 readout
Method: (§1) Detect EC50 and CC50 values of anti RSV respiratory tract virus compounds through the cytopathic effect assay.
Virus strain: RSV respiratory tract virus (A long strain)
(§2) The cell plate was centrifugated (300 rpm) to make the cells adherent to the wall, placed into a 37° C., 5% CO2 incubator overnight.
(§3) 1) the compound in 100% DMSO underwent a semi logarithmic dilution, then was added to the cell plate with a Echo liquid handler. Ensure that the final concentration of DMSO was 1%;
(§4) 2) Cell-control hole: no compound and viruse were added; virus-control hole: no compound was added.
dilute RSV viruses to 100 TCID50/30 μL with medium cultured with 4° C. cells, and then add the diluted viruses to a cell plate (30 μL/hole) with Multidrop® automatic liquid distributor, and then placed into a 37° C., 5% CO2 culture incubator for 5 days.
1) after 5 days, observe the pathological change in each hole.
(§5) 2) add CCK-8 (Dojindo-CK04-20, 6 μL/hole) to 384 well plate with Multidrop® automatic liquid distributor;
(§6) 3) place the plate at a 37° C., 5% CO2 culture incubator for 3˜4 h, read the absorbance value with SPECTRA max 340PC_Molecular device at 450 nm and 630 nm;

[2] = RSV long CPE assay (cytopathic effect assay), CC50 toxicity in vitro; assay type: cell-based; settings: human, Hep2 cells, CCK-8 readout, top concentration 100 μM
Method: as §1, §2, §3, §4, §5, §6

Row | EC50 [1] [nM] | Structure (SMILES) | CC50 at 5 days [2] [nM] | CC50 ([2]; 5 days) [nM]
1 | < 100 | CC(C)OC(=O)N1CC2(C1)C(=O)N(Cc1nc3c(n1CCCCO)CCCC3)c1ccc(Br)cc12 [Embodiment 78, Isopropyl 5′-bromo-1′-((1-(4-hydroxybutyl)-4,5,6,7-tetrahydro-1H-benzo[d]imidazol-2-yl)methyl)-2′-oxospiro[azetidine-3,3′-indoline]-1-carboxylate] | > 100000 | –
2 | 100 to 1000 | CC(C)OC(=O)N1CC2(C1)C(=O)N(Cc1nc3c(n1CCCC(F)(F)F)C(=O)CCC3)c1ccccc12 [Embodiment 108, Isopropyl 2′-oxo-1′-((7-oxo-1-(4,4,4-trifluorobutyl)-4,5,6,7-tetrahydro-1H-benzo[d]imidazol-2-yl)methyl)spiro[azetidine-3,3′-indoline]-1-carboxylate] | > 100000 | –
3 | < 100 | C=CCCn1c(CN2C(=O)C3(CN(C(=O)OC(C)C)C3)c3ccc(Cl)cc32)nc2c1CCCC2 [Embodiment 107, Isopropyl 1′-((1-(but-3-en-1-yl)-4,5,6,7-tetrahydro-1H-benzo[d]imidazol-2-yl)methyl)-6′-chloro-2′-oxospiro[azetidine-3,3′-indoline]-1-carboxylate] | > 100000 | –
4 | < 100 | O=C(C(F)F)N1CC2(C1)C(=O)N(Cc1nc3c(n1CCCC(F)(F)F)CCCC3)c1ccccc12 [Embodiment 96, 1-(2,2-Difluoroacetyl)-1′-((1-(4,4,4-trifluorobutyl)-4,5,6,7-tetrahydro-1H-benzo[d]imidazol-2-yl)methyl)spiro[azetidine-3,3′-indoline]-2′-one] | > 100000 | –
5 | < 100 | O=C(C1CC1)N1CC2(C1)C(=O)N(Cc1nc3c(n1CCCC(F)(F)F)CCCC3)c1cc(F)ccc12 [Embodiment 84, 1-(Cyclopropanecarbonyl)-6′-fluoro-1′-((1-(4,4,4-trifluorobutyl)-4,5,6,7-tetrahydro-1H-benzo[d]imidazol-2-yl)methyl)spiro[azetidine-3,3′-indoline]-2′-one] | > 100000 | –
6 | < 100 | CC(C)OC(=O)N1CC2(C1)C(=O)N(Cc1nc3c(n1CCCC(F)(F)F)CCCC3)c1ccc(Cl)cc12 [Embodiment 80, Isopropyl 5′-chloro-2′-oxo-1′-((1-(4,4,4-trifluorobutyl)-4,5,6,7-tetrahydro-1H-benzo[d]imidazol-2-yl)methyl)spiro[azetidine-3,3′-indoline]-1-carboxylate] | > 100000 | –
7 | < 100 | CC(C)OC(=O)N1CC2(C1)C(=O)N(Cc1nc3c(n1CCCC(F)(F)F)CCCC3)c1cccc(Cl)c12 [Embodiment 86, Isopropyl 4′-chloro-2′-oxo-1′-((1-(4,4,4-trifluorobutyl)-4,5,6,7-tetrahydro-1H-benzo[d]imidazol-2-yl)methyl)spiro[azetidine-3,3′-indoline]-1-carboxylate] | > 100000 | –
8 | 100 to 1000 | CCC(F)(F)Cn1c(CN2C(=O)C3(CN(C(=O)OC(C)C)C3)c3ccccc32)nc2c1CCCC2 [Embodiment 67, Isopropyl 1′-((1-(2,2-difluorobutyl)-4,5,6,7-tetrahydro-1H-benzo[d]imidazol-2-yl)methyl)-2′-oxospiro[azetidine-3,3′-indoline]-1-carboxylate] | > 100000 | –
9 | < 100 | CCOC(=O)N1CC2(C1)C(=O)N(Cc1nc3c(n1CCCC(F)(F)F)CCCC3)c1cc(F)ccc12 [Embodiment 83, Ethyl 6′-fluoro-2′-oxo-1′-((1-(4,4,4-trifluorobutyl)-4,5,6,7-tetrahydro-1H-benzo[d]imidazol-2-yl)methyl)spiro[azetidine-3,3′-indoline]-1-carboxylate] | > 100000 | –
10 | < 100 | CC(C)C(=O)N1CC2(C1)C(=O)N(Cc1nc3c(n1CCCC(F)(F)F)CCCC3)c1ccccc12 [Embodiment 95, 1-Isobutyryl-1′-((1-(4,4,4-trifluorobutyl)-4,5,6,7-tetrahydro-1H-benzo[d]imidazol-2-yl)methyl)spiro[azetidine-3,3′-indoline]-2′-one] | > 100000 | –
11 | < 100 | O=C1N(Cc2nc3c(n2CCCC(F)(F)F)CCCC3)c2ccccc2C12CN(S(=O)(=O)C1CC1)C2 [Embodiment 98, 1-(Cyclopropylsulfonyl)-1′-((1-(4,4,4-trifluorobutyl)-4,5,6,7-tetrahydro-1H-benzo[d]imidazol-2-yl)methyl)spiro[azetidine-3,3′-indoline]-2′-one] | > 100000 | –
12 | < 100 | CCOC(=O)N1CC2(C1)C(=O)N(Cc1nc3c(n1CCCC(F)(F)F)CCC3)c1ccccc12 [Embodiment 104, Ethyl 2′-oxo-1′-((1-(4,4,4-trifluorobutyl)-1,4,5,6-tetrahydrocyclopenta[d]imidazol-2-yl)methyl)spiro[azetidine-3,3′-indoline]-1-carboxylate] | > 100000 | –
13 | < 100 | CC(C)S(=O)(=O)N1CC2(C1)C(=O)N(Cc1nc3c(n1CCCC(F)(F)F)CCCC3)c1ccccc12 [Embodiment 99, 1-(Isopropylsulfonyl)-1′-((1-(4,4,4-trifluorobutyl)-4,5,6,7-tetrahydro-1H-benzo[d]imidazol-2-yl)methyl)spiro[azetidine-3,3′-indoline]-2′-one] | > 100000 | –
14 | < 100 | CC(C)OC(=O)N1CC2(C1)C(=O)N(Cc1nc3c(n1CCCCO)CCCC3)c1ccccc12 [Embodiment 62, Isopropyl 1′-((1-(4-hydroxybutyl)-4,5,6,7-tetrahydro-1H-benzo[d]imidazol-2-yl)methyl)-2′-oxospiro[azetidine-3,3′-indoline]-1-carboxylate] | > 100000 | –
15 | < 100 | CS(=O)(=O)N1CC2(C1)C(=O)N(Cc1nc3c(n1CCCC(F)(F)F)CCC3)c1ccccc12 [Embodiment 106, 1-(Methylsulfonyl)-1′-((1-(4,4,4-trifluorobutyl)-1,4,5,6-tetrahydrocyclopenta[d]imidazol-2-yl)methyl)spiro[azetidine-3,3′-indoline]-2′-one] | > 100000 | –
16 | < 100 | O=C1N(Cc2nc3c(n2CCCCO)CCCC3)c2ccccc2C12CC2 [Embodiment 63, 1′-((1-(4-Hydroxybutyl)-4,5,6,7-tetrahydro-1H-benzo[d]imidazol-2-yl)methyl)spiro[cyclopropane-1,3′-indoline]-2′-one] | > 100000 | –
17 | < 100 | O=CN1CC2(C1)C(=O)N(Cc1nc3c(n1CCCC(F)(F)F)CCCC3)c1ccccc12 [Embodiment 90, 2′-Oxo-1′-((1-(4,4,4-trifluorobutyl)-4,5,6,7-tetrahydro-1H-benzo[d]imidazol-2-yl)methyl)spiro[azetidine-3,3′-indoline]-1-carbaldehyde] | > 100000 | –
18 | < 100 | CCC(=O)N1CC2(C1)C(=O)N(Cc1nc3c(n1CCCC(F)(F)F)CCCC3)c1ccccc12 [Embodiment 94, 1-Propionyl-1′-((1-(4,4,4-trifluorobutyl)-4,5,6,7-tetrahydro-1H-benzo[d]imidazol-2-yl)methyl)spiro[azetidine-3,3′-indoline]-2′-one] | > 100000 | –
19 | < 100 | Cc1nc(CN2C(=O)C3(CN(C(=O)OC(C)C)C3)c3ccccc32)n(CCCCO)c1C [Embodiment 100, Isopropyl 1′-((1-(4-hydroxybutyl)-4,5-dimethyl-1H-imidazol-2-yl)methyl)-2′-oxospiro[azetidine-3,3′-indoline]-1-carboxylate] | > 100000 | –
20 | < 100 | CC(C)OC(=O)N1CC2(C1)C(=O)N(Cc1nc3c(n1CCCC(F)(F)F)CCCC3)c1ccccc12 [Embodiment 65, Isopropyl 2′-oxo-1′-((1-(4,4,4-trifluorobutyl)-4,5,6,7-tetrahydro-1H-benzo[d]imidazol-2-yl)methyl)spiro[azetidine-3,3′-indoline]-1-carboxylate] | > 100000 | –
21 | < 100 | CC(C)OC(=O)N1CC2(C1)C(=O)N(Cc1nc3c(n1/C=C(\F)C(C)C)CCCC3)c1ccccc12 [Embodiment 70, Isopropyl (Z)-1′-((1-(2-fluoro-3-methylbut-1-en-1-yl)-4,5,6,7-tetrahydro-1H-benzo[d]imidazol-2-yl)methyl)-2′-oxospiro[azetidine-3,3′-indoline]-1-carboxylate] | > 100000 | –

Row | Structure (SMILES) | EC50 [1] [nM] | CC50 at 5 days [2] [nM] | CC50 ([2]; 5 days) [nM]
22 | CC(C)OC(=O)N1CC2(C1)C(=O)N(Cc1nc3c(n1CC(F)(F)CCF)CCCC3)c1ccccc12 [Embodiment 66, Isopropyl 2′-oxo-1′-((1-(2,2,4-trifluorobutyl)-4,5,6,7-tetrahydro-1H-benzo[d]imidazol-2-yl)methyl)spiro[azetidine-3,3′-indoline]-1-carboxylate] | < 100 | > 100000 | –
23 | CC(C)OC(=O)N1CC2(C1)C(=O)N(Cc1nc3c(n1CCCCO)CCCC3)c1cccc(Cl)c12 [Embodiment 85, Isopropyl 4′-chloro-1′-((1-(4-hydroxybutyl)-4,5,6,7-tetrahydro-1H-benzo[d]imidazol-2-yl)methyl)-2′-oxospiro[azetidine-3,3′-indoline]-1-carboxylate] | < 100 | – | > 100000

From patent US9850251B2, “Imidazole derivative used as antiviral agent and use therof in preparation of medicament” (priority 2013, dated 2017)
